Here are results for 1 compound from PMC10735184, “Attractant and repellent induce opposing changes in the four-helix bundle ligand-binding domain of a bacterial chemoreceptor” (PLOS Biology, 2023).

Test [1] has as its target T1, MCP2201 (Comamonas thiooxydans, UniProt A0ABF7PFR0, T108A).
T1 construct: gene CtCNB1_2201; MCP2201-LBD (residues 58–203), isolated periplasmic domain
The experiment in a line: ITC. It counts as binding.

For test [2], the target named is T2, MCP2201 (Comamonas thiooxydans, UniProt A0ABF7PFR0).
T2 construct: gene CtCNB1_2201; MCP2201-LBD (residues 58–203), N-terminal His6-tag
T2 sequence (A0ABF7PFR0 58-203): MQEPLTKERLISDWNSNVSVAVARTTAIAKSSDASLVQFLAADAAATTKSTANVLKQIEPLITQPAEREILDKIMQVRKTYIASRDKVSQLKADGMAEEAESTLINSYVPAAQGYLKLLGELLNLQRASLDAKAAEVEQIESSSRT
The experiment in a line: ITC; crystal structure at […] Å; analytical ultracentrifugation. It counts as binding.

The Kd is a measure of binding affinity in units of concentration.

With `O=C(O)C[C@H](O)C(=O)O` [L-malate], the figures for the Kd in test [1] and in test [2] were 995 ± 438 µM and 18.8 ± 7.45 µM, respectively.
